Results published in patent publication US12496298B2, “Natural killer cells” (Imperial College Innovations Limited, priority 2017, dated 2025).

System: mouse NK cell (NK1.1+CD3−) production from HPCs
Test: In vitro development of NK cells from mouse HPCs (NK cell development assay, flow cytometry at Day 9)
Type: cell-based
Conditions: for increase in NK cell production, rank among 2, 5, 10 and 20 μM: confirmation experiments (FIG. 4)
Source text: FIG. 2: Timeline of NK cell development assay. HPCs were isolated and cultured plus FIt3L, IL-7 and SCF cytokines. At Day 2, they were then transferred onto OP9 stromal cells plus or minus drug in culture medium plus the IL-15 cytokine. The media of the cultures were changed at Day 5 and the cells were harvested and analysed at Day 9.
Lineage negative cells are enriched for Hematopoietic Progenitor Cells (HPCs). […] Cells were harvested on Day 9 and analysed using flow cytometry to determine the number of NK1.1^+CD3^− cells (FIG. 2). NK1.1^+ and CD3^− are two cell surface markers that can define mouse NK cells. OP9 stromal cells were readily excluded from the analysis, as the OP9 stromal cells used were GFP positive (FIG. 3B). Flow cytometry data were analysed as the fold increase, relative to the ‘No drug’ or untreated control in each experiment. This is because the absolute percentage of NK cell production varies between experiments.
Lineage negative HSCs were purified from mouse bone marrow by crushing the leg bones in Phosphate-buffered Saline (PBS) with 2% fetal calf serum (FCS) (STEMCELL Technologies), topped up to 40 ml with magnetic-activated cell sorting (MACS) buffer (PBS, 2 mM EDTA, 0.5% BSA, sterile and filtered) and centrifuged at 800 g for 2 minutes. The cells were resuspended in PE-conjugated cocktail, (20 μl of anti-B220 (RA3-6B2), anti-mouse CD2 (RM2-5, anti-Ter119 (TER119) and anti-NK.1.1 (PK136) and 5 μl of anti-CD11b (M1/70) and anti-GR-1 (RB6-8C5) antibodies (all from Bioscience)) incubated for 5 minutes at 4° C., centrifuged and resuspended in anti-PE microbeads for 15 minutes at 4° C. Cells were washed in MACS buffer and passed through MACS columns. This allowed negative selection of HPCs. Following lineage depletion, 50 μl of the cells was analysed using flow cytometry to check for purity.
The HPCs were plated and cultured in 24-well plates at a concentration of 5×10^5 HPCs/well in 1 ml of complete cytokine medium (Dulbecco's modified eagle medium (DMEM) (Sigma Aldrich), 10% FCS, 50 μM β-Mercaptoethanol, 10 ng/ml Flt3-ligand (FIt3L) (R&D Systems), 10 ng/ml IL-7 (R&D Systems), 100 ng/ml stem cell factor (SCF) (R&D Systems) and 1% P/S) for 2 days at 37° C., 5% CO2. The HPCs were then transferred onto OP9 cells at 4500 cells/well for 96-well plate experiments and 3×10^4 cells/well for 24-well plate experiments in mouse NK cells differentiation medium (Alpha-MEM (Sigma Aldrich) plus 20% FCS, 1% P/S and 30 ng/ml IL-15). Cells were left in culture at 37° C., 5% CO2 for 7 days with a change of mouse NK cells differentiation medium at day 3 or 4.
Cells to be analysed by flow cytometry were passed through 40 μm cell strainers to remove clumps and washed with PBS buffer, centrifuged at 800 g for 2 minutes and resuspended in 100 μl fluorescent activated cell sorting (FACS) buffer (PBS plus 1% BSA) with appropriate fluorochrome conjugated antibodies at a dilution of 1 in 300. Cells were stained with the following antibodies, all of which were anti-mouse and are from eBioscience unless specified: 2B4 (clone m2B4(B6) 458.1; BioLegend), CD2 (RM2-5), CD3 (17A2), CD11b (M1/70), CD19 (1D3), CD27 (LG.7F9), CD122 (TM-b1), CD127 (A7R34), B220 (RA3-6B2), ckit (ACK2), Flt3 (A2F10), Gr1 (RB6-8C5), NK1.1 (PK136), Sca1 (D7), Ter119 (TER119), NKp46 (29A1.4) anti-human CD45 (HI30), anti-human CD2 (RPA-2.10) and anti-human CD56 (CMSSB). The lineage cocktail contained B220, CD2, CD11b, Gr1, NK1.1, and Ter119. Cells were stained in the dark at 4° C. for 30 minutes and then washed with 2 ml FACS buffer, centrifuged and resuspend in 300 μl FACS buffer plus Propidium Iodide (PI) also at a dilution of 1 in 300. Flow cytometry was performed using LSRFortessa™ cell analyser (Becton Dickinson Bioscience), sorted using FACSAria (Becton Dickinson) as indicated and full data analysis was done using FlowJo Software.

With `CCOC(=O)C1Cc2ccccc2CN1C(=O)c1ccc(SC)s1` (centres unmarked) [SR8278, 1,2,3,4-Tetrahydro-2-[[5-(methylthio)-2-thienyl]carbonyl]-3-isoquinolinecarboxylic acid ethyl ester] the “NK cell production relative to 'No drug' control” value (5 μM added at Day 0 (greatest effect)) was “over 1.4 fold”, the “increase in NK cell production, rank among 2, 5, 10 and 20 μM” value (5 μM) was “followed by 5 μM” and the “NK cell production increase compared to 'No drug' control” value (10 μM added Day 2, analysed Day 9, screen (FIG. 3)) was “over 2.4 fold”. The “increase in NK cell production relative to 'No drug' control” value (10 μM added on Days 0, 1 and 2) was “over 1.6 fold”, the “increase in NK cell production, rank among 2, 5, 10 and 20 μM” value (10 μM) was “highest increase in NK cell production” and the “number of NK cells detected” value (20 μM added Day 2, analysed Day 9) was “reduction in the number of NK cells detected”. The “NK cell production relative to 'No drug' control” value (5 or 10 μM added after Day 2) was “no significant difference” and the “production of NK cells in NK cell production assays increases” value (summary in Discussion, concentration not given) was “more than 2 fold”.
